Counter-ions that a name gives are not always drawn.
Experiment: Fluidity evaluation: angle of repose determination (fixed base cone method)
Type: physicochemical
Conditions: for fluidity (judgement in words): fixed base cone method
Description: The term “fluidity” in the present Specification means adhesion and cohesion between particles or adhesion of a particle with a solid wall surface. Said “fluidity” can be put into numerical terms by, for instance, methods of determining the angle of repose of a powder. Methods of determining the angle of repose are known to those in the field, but the fixed base cone method by funnel is an example (for instance, “Yakuzaigaku,” Ryuichi Arita, Hitoshi Sezaki, editors (Kodansha Scientific), p. 182). […] R. L. Jr., Chemical Engineering, Jan. 18, p. 166, Table II, 1965).
[Fluidity evaluation: angle of repose determination] A funnel for pouring powder is placed above a table for determination of the angle of repose. The angle formed by the surface of a layer of accumulated powder and a horizontal plane when the powder is poured so that none remains in the funnel is determined and this angle (°) serves as the angle of repose.

O=C([O-])[O-].[Ca+2] [calcium carbonate undiluted powder, calcium carbonate]
angle of repose (determination performed with a vibrator): 50 °
fluidity (judgement in words): fluidity was not good

NC(N)=Nc1nc(CSCCC(N)=NS(N)(=O)=O)cs1 [famotidine undiluted powder, famotidine]
fluidity (judgement in words): extremely inferior fluidity

Nc1c(Br)cc(Br)cc1CN[C@H]1CC[C@H](O)CC1 [amboxol hydrochloride, ambroxol hydrochloride]
fluidity (judgement in words): could not be fed by funnel even using the vibrator

From patent publication US6656492B2, “Quick disintegrating tablet in buccal cavity and manufacturing method thereof” (Yamanouchi Pharmaceutical Co., Ltd., priority 2000, dated 2003)
